Results on two compounds are retold here after patent US4477440A, “Renin inhibitors containing an n-terminal disulfide cycle” (Merck & Co., Inc., priority 1983, dated 1984).

The target of one test is T1, human kidney renin (Homo sapiens, UniProt P00797).
T1 construct: human kidney renin purified as described in Bangham; from tissue; host or cells: human kidney
T1 sequence (P00797 67-406): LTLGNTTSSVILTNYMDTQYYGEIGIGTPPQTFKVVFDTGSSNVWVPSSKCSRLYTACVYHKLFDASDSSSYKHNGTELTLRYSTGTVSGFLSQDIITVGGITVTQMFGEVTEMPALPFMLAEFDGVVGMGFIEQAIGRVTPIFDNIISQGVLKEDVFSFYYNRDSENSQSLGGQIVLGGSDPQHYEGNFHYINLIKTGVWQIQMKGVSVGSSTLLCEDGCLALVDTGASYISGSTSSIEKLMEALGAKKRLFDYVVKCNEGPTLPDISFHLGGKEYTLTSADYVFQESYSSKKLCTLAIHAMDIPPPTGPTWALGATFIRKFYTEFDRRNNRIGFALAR
In words: Human renin inhibition. It is filed as biochemical. The following applies: purified human kidney renin; dissociation constant of enzyme-inhibitor complex. Here is the method:
An assay was carried out in order to determine the inhibitory potency of the peptides of the present invention. The assay measured the inhibition of human kidney renin purified as described in Bangham, D. R., Robertson, I., Robinson, J. I. S., Robinson, C. J., and Tree, M., Clinical Science and Molecular Medicine, 48 (Supp. 2): 136s-159s (1975), and further purified by affinity chromatography on pepstatin-aminohexyl-Sepharase as described in Poe, M., Wu., J. K., Florance, J. R., Radkey, J. A., Bennett, C. D., and Hoogsteen, K., J. Biol. Chem. (1982, in press). The assay was also in accordance with Poe et al. cited above. Results are expressed as KI values, which refer to the dissociation constant of the inhibited enzyme-inhibitor complex. This KI value was obtained as described above. Pepstatin was used as an active control.

The next test concerns hog renin. The following applies: after injection of hog renin into nephrectomized rats; cited from earlier work.

pKi: −log10 of the molar value. Positions of bridges follow the written chain, without caps; N, C: chain ends. Non-standard residues stand in square brackets, D forms with d. Residues, ends and D or L forms follow the SMILES beside them. Sta = CC(C)C[C@H](N)[C@@H](O)CC(=O)O; hCys = N[C@@H](CCS)C(=O)O

The pKi is −log10 of the Ki, conventionally taken in molar units. The compound `COC(=O)[C@H](Cc1ccccc1)NC(=O)[C@H](CC(C)C)NC(=O)C[C@H](O)[C@H](CC(C)C)NC(=O)[C@@H]1CCSSCC[C@H](N)C(=O)N2CCC[C@H]2C(=O)N[C@@H](Cc2ccccc2)C(=O)N1` (H-[hCys]PF[hCys][Sta]LF-OMe; disulfide 1-4) had a negative logarithm of the Ki (pKi) at human kidney renin of 6.39.
With pepstatin, the “blood pressure in vivo” value in the test with hog renin is “reduce blood pressure in vivo”.
